Experimental findings from patent publication US20100317533A1, “BIOMARKERS OF CANCER METASTASIS” (BRITISH COLUMBIA CANCER AGENCY BRANCH, priority 2009, published 2010) are described below.

What all share (assay type): cell-based, mouse
For experiment [1], the system named is 4T1 cells. The experiment can be described thus: Measurement of extracellular pH of culture medium, 4T1 cells. The note with it: hypoxia 72 hours, CAI 17 400 μM. As to the method: (§1) The acquisition, generation and culture of the mouse breast cancer cell lines 4T1, 66cl4 and 67NR have been described previously^11. These 3 cell lines stably express a luciferase reporter^11 and were cultured routinely in DMEM supplemented with 10% FBS, non-essential amino acids and […] puromycin. Incubation in normoxia was carried out in a humidified atmosphere of 5% CO2 and 95% air at 37° C. Cells were maintained in conditions of hypoxia (1% O2 and 5% CO2 balanced with N2) at 37° C. in a humidified incubator positioned in a sealed anaerobic workstation.
Cells were plated in 60 mm dishes and allowed to recover for 24 hours. Growth medium was then replaced with a standard 3 ml volume of fresh media and cells were incubated in normoxia or hypoxia for 72 hours. Spent media was collected in 15 ml conical tubes, maintained at 37° C. and pH was measured immediately using a digital pH meter. Triplicate plates were run for each condition and results were averaged. Cell layers were kept on ice and were harvested for qRT-PCR and Western blot analysis. […]
(§2) Data are expressed as the mean change in extracellular pH±s.e.m. of triplicate samples and are representative of 3 independent experiments. […]
Data are expressed as the mean change in extracellular pH±s.e.m. and are representative of 2 independent experiments (each n=3).

The test system of experiment [2] is 4T1 cells. The experiment can be described thus: Binding of FITC-tagged CAIX inhibitor to cells (epifluorescence), 4T1 cells. The conditions noted are these: hypoxia 72 hours, 10 μM. As to the method:
(§3) CAI 17 was a generous gift from Dr. Claudiu Supuran (University of Florence, Florence, Italy). The chemical properties of this sulfonamide have been previously described^20,34. The sulfonamide was dissolved in 100% DMSO, stored at −80° C. and diluted into culture medium just prior to application. Subconfluent cell monolayers were incubated with CAI 17 for 72 hours in normoxia or hypoxia, washed 3× in PBS and imaged using a Ziess Axioplan epifluorescence microscope.
(§4) FIG. 4, part d, depicts localization of the fluorescent CAIX inhibitor, CAI 17, on cells. To determine whether the acidification was CAIX-dependent, cells were treated with a highly specific CAIX inhibitor (compound 17 or “CAI 17”)^20. Cells were incubated in normoxia or hypoxia for 72 hours in the presence of CAI 17 at a concentration of 10 μM. Shown are representative images of the FITC-tagged inhibitor bound to the cells under the indicated experimental conditions. Data were similar in 3 independent experiments.

The test system of experiment [3] is 66cl4 cells. The experiment can be described thus: Binding of FITC-tagged CAIX inhibitor to cells (epifluorescence), 66cl4 cells. The conditions noted are these: hypoxia 72 hours, 10 μM. As to the method:
as §3, §4

The test system of experiment [4] is 66cl4 cells. The experiment can be described thus: Measurement of extracellular pH of culture medium, 66cl4 cells. The note with it: hypoxia 72 hours, CAI 17 600 μM. As to the method: as §1
Cells were plated in 60 mm dishes and allowed to recover for 24 hours. Growth medium was then replaced with a standard 3 ml volume of fresh media and cells were incubated in normoxia or hypoxia for 72 hours. Spent media was collected in 15 ml conical tubes, maintained at 37° C. and pH was measured immediately using a digital pH meter. Triplicate plates were run for each condition and results were averaged. Cell layers were kept on ice and were harvested for qRT-PCR and Western blot analysis.
CAI 17 was a generous gift from Dr. Claudiu Supuran (University of Florence, Florence, Italy). The chemical properties of this sulfonamide have been previously described^20,34. […]
as §2

For the next experiment, the system named is 67NR cells. The experiment can be described thus: Binding of FITC-tagged CAIX inhibitor to cells (epifluorescence), 67NR cells. The note with it: hypoxia 72 hours, 10 μM. As to the method: as §3, §4

Turning to `NS(=O)(=O)c1ccc(CCNC(=S)Nc2ccc(-c3c4ccc(=O)cc-4oc4cc(O)ccc34)c(C(=O)O)c2)cc1` [CAI 17], the “acidification of the extracellular medium under hypoxia” value in the experiment with 4T1 cells [1] and with 66cl4 cells [4] was “reversed acidification of the extracellular medium” throughout. The results for the “binding of FITC-tagged inhibitor to cell surfaces” value with 4T1 cells [2], in the experiment with 66cl4 cells [3] and in the experiment on 67NR cells were “binds to the cell surfaces”, “binds to the cell surfaces” and “not”, respectively.
